From patent EP0655506B1 (priority 1994, dated 1995)

Key:
[1] = target: T1, Taq DNA polymerase (unmodified DNA polymerase from Thermus aquaticus) (Thermus aquaticus, UniProt P19821); test: Inhibition of DNA synthesis on synthetic Primer-Template A, competition of dATP and ddATP (Example 9); assay type: biochemical; details: in the presence of 10 µM dATP, 70°C, read-out: [ddATP] for 50% inhibition
T1 construct: to the gene that produces the full length Taq DNA polymerase; made in house
Description: (§1) In this example the competition between a dNTP and a ddNTP is assayed for use at a single site in a synthetic primer-template. This assay differs from the others in that it limits the comparison of the use of the two substrates to a single site, avoiding the complication of sequence-specific variability in discrimination. […]
(§2) Each reaction mixture contains 25 pmoles each of primer and template. […] The mixtures are incubated at 37°C for 1 min (70°C for thermophilic DNA polymerases), and the reactions are initiated by the addition of 5 µl aliquots (0.01 to 1 unit) of the DNA polymerase being analyzed diluted in 20 mM TrisHCl, pH 7.5, 10 mM 2-mercaptoethanol and 0.05% bovine serum albumin. […] The disks are then dried under a heat lamp and counted in a scintillation counter in 5 ml of fluor (Opti-Fluor O, Packard). From the amount of radioactivity on each disk, the amount […] incorporated was determined. […]
(§3) All reactions are carried out with a constant amount of the DNA polymerase being analyzed; the amount of DNA polymerase should be sufficient to replicate 50% of the total dCMP residues in the single-stranded region of the template in the 10 min incubation in the presence of 10 µM dATP and the absence of ddATP. […]

[2] = target: T2, E. coli DNA polymerase I (large fragment, Klenow fragment), wild type (Escherichia coli, UniProt P00582); test: as above; assay type: biochemical; details: in the presence of 10 µM dATP, 37°C, read-out: [ddATP] for 50% inhibition
T2 construct: The large fragment of E. coli DNA polymerase I, commonly called the Klenow fragment; made in house
Description: as §1, §2, §3

T2 sequence (P00582 324-928): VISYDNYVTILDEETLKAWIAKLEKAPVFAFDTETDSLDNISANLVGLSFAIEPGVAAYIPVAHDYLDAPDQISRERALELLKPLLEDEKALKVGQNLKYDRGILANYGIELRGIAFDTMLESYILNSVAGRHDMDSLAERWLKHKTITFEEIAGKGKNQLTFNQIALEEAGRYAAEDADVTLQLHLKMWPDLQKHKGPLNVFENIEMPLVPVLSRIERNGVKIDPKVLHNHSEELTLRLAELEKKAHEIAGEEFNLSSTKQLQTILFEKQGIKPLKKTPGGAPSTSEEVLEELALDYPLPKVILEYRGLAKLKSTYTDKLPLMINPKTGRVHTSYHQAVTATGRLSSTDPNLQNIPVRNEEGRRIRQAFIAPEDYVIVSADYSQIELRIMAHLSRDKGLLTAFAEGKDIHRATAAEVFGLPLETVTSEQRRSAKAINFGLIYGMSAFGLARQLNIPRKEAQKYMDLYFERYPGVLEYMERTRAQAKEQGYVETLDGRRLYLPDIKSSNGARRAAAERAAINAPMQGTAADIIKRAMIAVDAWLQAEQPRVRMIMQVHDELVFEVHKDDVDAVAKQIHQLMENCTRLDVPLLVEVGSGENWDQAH
T1 sequence (P19821 whole entry): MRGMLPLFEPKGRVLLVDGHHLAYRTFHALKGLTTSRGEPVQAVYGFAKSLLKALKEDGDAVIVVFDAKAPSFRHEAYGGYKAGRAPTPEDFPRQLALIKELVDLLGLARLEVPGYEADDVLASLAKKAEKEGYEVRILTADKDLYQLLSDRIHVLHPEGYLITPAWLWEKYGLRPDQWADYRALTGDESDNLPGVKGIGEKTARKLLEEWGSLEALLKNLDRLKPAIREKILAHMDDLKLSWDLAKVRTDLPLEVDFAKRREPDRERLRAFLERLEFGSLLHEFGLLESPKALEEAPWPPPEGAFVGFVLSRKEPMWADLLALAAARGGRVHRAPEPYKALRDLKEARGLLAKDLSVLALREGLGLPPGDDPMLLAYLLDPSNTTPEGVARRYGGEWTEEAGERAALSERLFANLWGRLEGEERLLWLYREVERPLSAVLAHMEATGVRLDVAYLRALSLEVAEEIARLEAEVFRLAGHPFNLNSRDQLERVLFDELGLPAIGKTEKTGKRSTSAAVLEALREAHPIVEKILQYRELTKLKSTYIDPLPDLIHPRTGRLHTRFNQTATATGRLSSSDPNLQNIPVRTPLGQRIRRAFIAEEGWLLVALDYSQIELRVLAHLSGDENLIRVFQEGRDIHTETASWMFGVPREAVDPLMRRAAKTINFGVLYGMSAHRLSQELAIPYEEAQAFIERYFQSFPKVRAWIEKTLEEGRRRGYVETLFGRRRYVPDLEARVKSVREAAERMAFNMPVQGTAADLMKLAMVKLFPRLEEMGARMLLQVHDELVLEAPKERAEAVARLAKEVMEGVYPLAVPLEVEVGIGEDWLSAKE

Nc1ncnc2c1ncn2[C@H]1CC[C@@H](COP(=O)(O)OP(=O)(O)OP(=O)(O)O)O1 [ddATP]
IC50 [1]: > 500 µM | IC50 [2]: > 500 µM
